Drawing on ChEMBL document CHEMBL4330116, “Harzianoic acids A and B, new natural scaffolds with inhibitory effects against hepatitis C virus” (Bioorg Med Chem, 2019), this text covers inhibition for two compounds.

The source made the active and inactive calls. The rule behind the calls is not given here.

The assay relates to Vesicular stomatitis virus. Kind of assay: Antiviral activity against VSV pseudoparticles infected in human Huh7.5 cells infected with VSV pseudoparticles expressed in 293T cells with plasmid encoding vesicular stomatitis G protein, envelope and Vpr deficient HIV vector carrying luciferase reporter gene inserted into Nef position assessed as inhibition of pseudoparticle entry at 6.25 to 100 uM after 72 hrs by luciferase reporter gene assay. The format is functional, organism-based.

Consider `CC(=O)[C@@H]1C[C@H](C(=O)O)[C@@]1(C)CC/C=C(\C)C(=O)O`, for which the inhibition result is “inactive”.

For the compound `C/C(=C\CC[C@]1(C)[C@@H](C(=O)O)C[C@H]1[C@](C)(O)C(=O)O)C(=O)O`, the inhibition result is “inactive”.
